Assay results as given in US20080160108A1, “Method of treating muscular dystrophies with an inhibitor of histone deacetylase” (Centre National de la Recherche Scientifique- CNRS, a …, priority 2002, published 2008).

Experiments:
utrophin [1] = experiment: Utrophin in muscle of mdx mice injected i.p., immunofluorescence and Western blot; assay type: in vivo, mouse; settings: 200 mg/kg/day i.p. daily for 6 weeks
Protocol: Mdx mice were injected daily i.p. and for 6 weeks with 200 mg/kg/day either with butyrate or with L-arginine or with physiological serum. It is observed that the utrophin is poorly expressed in the muscle of the mdx mice injected with physiological serum used as control. […] It should be noted that the augmentation of utrophin is greater in the case of the mice injected with butyrate. The augmentation of the utrophin was quantified in Western blot.

utrophin [2] = experiment: Utrophin in muscle of healthy OF1 mice injected i.p.; assay type: in vivo, mouse
Protocol: OF1 mice were injected daily with i.p. and for 6 weeks with 100, 200 or 300 mg/kg/day either with arginine butyrate or with physiological serum. No utrophin was observed on the membrane in the muscle of the mice injected with the physiological serum used as control (“non-treated”). […] This augmentation is dosage-dependent. The induction of utrophin under the muscular membrane is significant probably on account of an additive effect of the arginine via the NO and of the butyrate via the activation of the transcription of the utrophin gene.

utrophin [3] = experiment: Utrophin expression in myotubes of mdx mice, Western blot; assay type: cell-based, mouse; settings: myotubes of dystrophic mdx mice (line xlt), 5 mM, 48 h
Protocol: Myotubes of dystrophic mdx mice (line xlt) are treated with 5 mM of butyrate for 48 h. The augmentation of utrophin is then quantified in Western blot.

Molecule: N=C(N)NCCC[C@H](N)C(=O)O [L-arginine]
- utrophin localisation in muscle (utrophin [1]; vs physiological serum control): the utrophin appears under the muscular membrane

Molecule: arginine butyrate
- dose dependence of the augmentation of utrophin (utrophin [2]; OF1 mice, 100, 200 or 300 mg/kg/day i.p. daily for 6 weeks): dosage-dependent
- utrophin localisation in muscle (utrophin [2]; OF1 mice, 100, 200 or 300 mg/kg/day i.p. daily for 6 weeks, vs physiological serum control): utrophin appears very clearly under the muscular membrane
- quantity of utrophin (utrophin [2]; healthy muscles and mdx mouse (FIG. 4), summary statement): significantly augments the quantity of utrophin

Molecule: CCCC(=O)O [butyrate]
- augmentation of expression of utrophin (factor, intensity of Western blot bands) (utrophin [3]): 2
- augmentation of expression of utrophin (factor, intensity of Western blot bands) (utrophin [1]): 2
